From patent US6589943B2, “Formulation of amphiphilic heparin derivatives for enhancing mucosal absorption” (Mediplex Corporation, Korea, priority 2001, dated 2003)

Tests used:
[1] = background, literature; cited from earlier work
[2] = zeta potential of particles in sodium bicarbonate buffer; assay type: physicochemical
Method: Surface Charges of Heparin-DOCA Particle. Zeta potentials of heparin-DOCA particles in sodium bicarbonate buffer were measured according to procedures well known in the art. The negative potential of heparin-DOCA conjugate particles was decreased by mixing with free DOCA. This was due to the fact that the DOCA moiety coupled to heparin could be exposed on the surface of heparin-DOCA conjugate particles by mixing with free DOCA.

Question: Which “absorption in the GI tract” value [1] does the source give for heparin here?
Answer: Its value is “not absorbed in the GI tract”.

Question: With `C[C@H](CCC(=O)O)[C@H]1CC[C@H]2[C@@H]3CC[C@@H]4C[C@H](O)CC[C@]4(C)[C@H]3C[C@H](O)[C@]12C` [Bile Acid, deoxycholic acid] as the compound, how does the “Zeta Potential” value [2] read?
Answer: The value was −22.3 ± 11.4 mv.
